Tests used:
Assay type in all cases: functional
A549 [1] = assay: Growth inhibition of human A549 cells at 40 uM after 24 hrs by MTT assay relative to control; conditions: A549, 24 h, read-out: GI
A549 [2] = assay: Growth inhibition of human A549 cells at 4 uM after 24 hrs by MTT assay relative to control; conditions: A549, 24 h, read-out: GI
KB [3] = assay: Growth inhibition of human KB cells at 4 uM after 24 hrs by MTT assay relative to control; conditions: read-out: GI
KB [4] = assay: Growth inhibition of human KB cells at 40 uM after 24 hrs by MTT assay relative to control; conditions: read-out: GI
A549 [5] = assay: Growth inhibition of human A549 cells at 20 uM after 24 hrs by MTT assay relative to control; conditions: A549, 24 h, read-out: GI
KB [6] = assay: Growth inhibition of human KB cells at 20 uM after 24 hrs by MTT assay relative to control; conditions: read-out: GI
KB [7] = assay: Growth inhibition of human KB cells at 2 uM after 24 hrs by MTT assay relative to control; conditions: read-out: GI
A549 [8] = assay: Growth inhibition of human A549 cells at 2 uM after 24 hrs by MTT assay relative to control; conditions: A549, 24 h, read-out: GI

| SMILES | inhibition of growth at 40 µM (A549 [1]) [%] | inhibition of growth at 4 µM (A549 [2]) [%] | inhibition of growth at 4 µM (KB [3]) [%] | inhibition of growth at 40 µM (KB [4]) [%] | inhibition of growth at 20 µM (A549 [5]) [%] | inhibition of growth at 20 µM (KB [6]) [%] | inhibition of growth at 2 µM (KB [7]) [%] | inhibition of growth at 2 µM (A549 [8]) [%] |
| --- | --- | --- | --- | --- | --- | --- | --- | --- |
| CCOP(=O)(OCC)C1C(C#N)=C(N)Oc2ccccc21 (stereo unspecified) | 51 | 6.25 | 15.2 | 60.1 | 18.4 | 19.4 | 0.12 | 4.12 |
| CC(C)OP(=O)(OC(C)C)C1C(C#N)=C(N)Oc2ccccc21 (stereo unspecified) | 5.47 | 1.2 | 5.21 | 9.22 | 3.5 | 8.93 | 2.5 | 0.82 |
| CCCCOP(=O)(OCCCC)C1C(C#N)=C(N)Oc2ccccc21 (stereo unspecified) | 30.2 | 7.82 | 6.8 | 40.4 | 21.7 | 17.6 | 6.45 | 3.51 |
| CCOP(=O)(OCC)C1C(C#N)=C(N)Oc2ccc(Br)cc21 (stereo unspecified) | 60.8 | 9.05 | 10 | 81.8 | 20.3 | 12 | 6.8 | 0.52 |
| CC(C)OP(=O)(OC(C)C)C1C(C#N)=C(N)Oc2ccc(Br)cc21 (stereo unspecified) | 12.5 | 1.6 | 15 | 25.4 | 10.5 | 20.3 | 9.45 | 0.32 |
| CCCCOP(=O)(OCCCC)C1C(C#N)=C(N)Oc2ccc(Br)cc21 (stereo unspecified) | 26.7 | 8.94 | 10.3 | 45.2 | 17.5 | 11.5 | 9.5 | 0.52 |
| CCOP(=O)(OCC)C1C(C#N)=C(N)Oc2ccc([N+](=O)[O-])cc21 (stereo unspecified) | 3.9 | 2.89 | 6.08 | 8.29 | 3.1 | 6.18 | 4.5 | 0.33 |
| CC(C)OP(=O)(OC(C)C)C1C(C#N)=C(N)Oc2ccc([N+](=O)[O-])cc21 (stereo unspecified) | 26.9 | 6.25 | 8.5 | 23.3 | 16.8 | 16.2 | 6.07 | 2.5 |
| CCCCOP(=O)(OCCCC)C1C(C#N)=C(N)Oc2ccc([N+](=O)[O-])cc21 (stereo unspecified) | 15.8 | 8.21 | 6 | 33.8 | 7.94 | 14.5 | 0.58 | 6.3 |
| CCOP(=O)(OCC)C1C(C#N)=C(N)Oc2c1cccc2C(C)(C)C (stereo unspecified) | 14.9 | 4.34 | 7.4 | 27.3 | 12 | 11.5 | 5.65 | 3.72 |
| CC(C)OP(=O)(OC(C)C)C1C(C#N)=C(N)Oc2c1cccc2C(C)(C)C (stereo unspecified) | 14.9 | 8.23 | 6.5 | 20.6 | 13.9 | 12.5 | 5.5 | 3.1 |
| CCCCOP(=O)(OCCCC)C1C(C#N)=C(N)Oc2c1cccc2C(C)(C)C (stereo unspecified) | 13.7 | 10.5 | 13.9 | 19.8 | 11.2 | 14.5 | 11.2 | 9.5 |
